Data from article PMC4440778, “Structure-Activity Relationship and Mode of Action of a Frog Secreted Antibacterial Peptide B1CTcu5 Using Synthetically and Modularly Modified or Deleted (SMMD) Peptides” (PLoS ONE, 2015).
Converted amounts (≈) assume the structure as drawn. Where a SMILES comes first, the peptide text is derived from it. Bridges are numbered along the chain shown (N, C = ends). Where no end group is shown, it is not given here. [ ]: non-standard residue; d: D form. The star is where a group is joined. Acm = CC(=O)NC*

Experiments:
PBMCs = format: cell-based, human
Experimental: Peripheral blood mononuclear cells (PBMCs) were isolated from heparanised blood of healthy individuals. Five milliliter of blood was diluted with PBS (pH 7.4), and layered above 5 ml of histopaque and centrifuged at 1200 rpm for 30 min at room temperature. The upper layer was discarded, and the interphase containing PBMCs were carefully withdrawn and washed with PBS. It was centrifuged at 1500 rpm at room temperature for 10 min, the pellets were resuspended in RPMI medium and the cells were counted.
(§1) Cytotoxicity of the peptides against human embryonic kidney (HEK) cells, skin cancer cells (A431) and PBMCs were evaluated by 3-[4, 5-dimethylthiazol-2-yl]-2, 5-diphenyl tetrazolium bromide (MTT) assay. Peptide solution prepared in less than 0.2% DMSO (10–100 μg/ml) was treated with initially seeded 10,000 cells per well for HEK and A431 cells. To assess peptide cytotoxicity in PBMCs, MTT assay was performed by adding different concentrations of the respective peptides to 96 well plate containing 40,000 PBMCs per well, in triplicate. The conversion of MTT into […] was determined by measuring the absorbance at 570 nm.

skin cancer cells (A431) = format: cell-based, human
Experimental: as §1

S. aureus ATCC 9542 = details: ATCC 9542, 24 h
Experimental: (§2) Bacterial cultures were grown in Luria Bertani broth (Hi-media) by overnight incubation at 37°C with constant shaking. Microbial cultures having 10^6 CFU/ml were made from OD 0.6 culture. Respective peptide stock concentration (1mg/ml) were prepared in sterile water and diluted in LB broth to make concentrations ranging from 1–200 μg/ml. Bacterial culture (50 μl) was treated with 50 μl of individual peptide amide solution of various concentrations and incubated for 24 h at 37°C with constant shaking in a 96 well microtitre plate. […] The minimum inhibitory concentration (MIC) was taken as the dose at which 100% of growth inhibition was observed and was calculated from the graph. MIC was calculated from independent experiments performed in triplicate.

B. subtilis MTCC 14416 = details: MTCC 14416, 24 h
Experimental: as §2

[1] = tested on: human embryonic kidney (HEK) cells; format: cell-based
Experimental: as §1

[2] = tested on: V. cholerae (clinical isolates); details: 24 h
Experimental: as §2

B. coagulans ATCC 7050 = details: ATCC 7050, 24 h
Experimental: as §2

E. coli MG 1655 = details: MG 1655, 24 h
Experimental: as §2

P. aeruginosa ATCC 27853 = details: ATCC 27853, 24 h
Experimental: as §2

Compound | CC 50 (PBMCs) [µg/mL] | CC 50 (skin cancer cells (A431)) [µg/mL] | MIC (S. aureus ATCC 9542) [µg/mL] | MIC (B. subtilis MTCC 14416) [µg/mL] | CC 50 [1] [µg/mL] | MIC [2] [µg/mL] | MIC (B. coagulans ATCC 7050) [µg/mL] | MIC (E. coli MG 1655) [µg/mL] | MIC (P. aeruginosa ATCC 27853) [µg/mL]
CC[C@H](C)[C@@H]1NC(=O)[C@H](CCCCN)NC(=O)[C@@H](NC(=O)[C@H](CC(C)C)NC(=O)[C@@H](NC(=O)[C@H](CCC(N)=O)NC(=O)[C@@H]2CCCN2C(=O)[C@H](CC(C)C)NC(=O)[C@H](Cc2ccccc2)NC(=O)[C@H](CC(N)=O)NC(=O)[C@H](C)NC(=O)[C@H](C)NC(=O)[C@H](CC(C)C)NC(=O)CNC(=O)[C@H](C)NC(=O)[C@@H](NC(=O)[C@@H](N)Cc2c[nH]c3ccccc23)[C@@H](C)CC)[C@@H](C)CC)CSSC[C@@H](C(N)=O)NC(=O)[C@H](CCCCN)NC(=O)[C@H](CCCNC(=N)N)NC(=O)[C@H](C)NC1=O [B1CTcu5W] (H-WIAGLAANFLPQILCKIARKC-NH2; disulfide 15-21) | 74.5 ± 2.44 (≈ 32 µM) | >100 | 12.5 (≈ 5.37 µM) | 50 (≈ 21.5 µM) | >100 | 25 (≈ 10.7 µM) | 12.5 (≈ 5.37 µM) | 100 (≈ 43 µM) | >100
CC[C@H](C)[C@H](NC(=O)[C@H](CCCCN)NC(=O)[C@H](CSCNC(C)=O)NC(=O)[C@H](CC(C)C)NC(=O)[C@@H](NC(=O)[C@H](CCC(N)=O)NC(=O)[C@@H]1CCCN1C(=O)[C@H](CC(C)C)NC(=O)[C@H](Cc1ccccc1)NC(=O)[C@H](CC(N)=O)NC(=O)[C@H](C)NC(=O)[C@H](C)NC(=O)[C@H](CC(C)C)NC(=O)CNC(=O)[C@H](C)NC(=O)[C@@H](NC(=O)[C@@H](N)CC(C)C)[C@@H](C)CC)[C@@H](C)CC)C(=O)N[C@@H](C)C(=O)N[C@@H](CCCNC(=N)N)C(=O)N[C@@H](CCCCN)C(=O)N[C@@H](CS)C(N)=O [B1CTcu5C (Acm)] (H-LIAGLAANFLPQILC(Acm)KIARKC-NH2) |  |  | 50 (≈ 21.5 µM) | 50 (≈ 21.5 µM) |  | 50 (≈ 21.5 µM) | 25 (≈ 10.7 µM) | 12.5 (≈ 5.37 µM) | >100
CC[C@H](C)[C@@H]1NC(=O)[C@H](CCCCN)NC(=O)[C@@H](NC(=O)[C@H](CC(C)C)NC(=O)[C@@H](NC(=O)[C@H](CCC(N)=O)NC(=O)[C@@H]2CCCN2C(=O)[C@H](CC(C)C)NC(=O)[C@H](Cc2ccccc2)NC(=O)[C@H](CC(N)=O)NC(=O)[C@H](C)NC(=O)[C@H](C)NC(=O)[C@@H](N)CC(C)C)[C@@H](C)CC)CSSC[C@@H](C(N)=O)NC(=O)[C@H](CCCCN)NC(=O)[C@H](CCCNC(=N)N)NC(=O)[C@H](C)NC1=O [B1CTcu5-LIAG] (H-LAANFLPQILCKIARKC-NH2; disulfide 11-17) | >100 | >100 | 6.25 (≈ 3.29 µM) | 50 (≈ 26.3 µM) | >100 | 12.5 (≈ 6.58 µM) | 25 (≈ 13.2 µM) | 12.5 (≈ 6.58 µM) | >100
CC[C@H](C)[C@@H]1NC(=O)[C@H](CCCCN)NC(=O)[C@@H](NC(=O)[C@H](CC(C)C)NC(=O)[C@@H](NC(=O)[C@H](CCC(N)=O)NC(=O)[C@@H]2CCCN2C(=O)[C@H](CC(C)C)NC(=O)[C@H](Cc2ccccc2)NC(=O)[C@H](CC(N)=O)NC(=O)[C@H](C)NC(=O)[C@H](C)NC(=O)[C@H](CC(C)C)NC(=O)CN)[C@@H](C)CC)CSSC[C@@H](C(N)=O)NC(=O)[C@H](CCCCN)NC(=O)[C@H](CCCNC(=N)N)NC(=O)[C@H](C)NC1=O [B1CTcu5-LIA] (H-GLAANFLPQILCKIARKC-NH2; disulfide 12-18) |  |  | 50 (≈ 25.6 µM) | 100 (≈ 51.1 µM) |  | 50 (≈ 25.6 µM) | 100 (≈ 51.1 µM) | 100 (≈ 51.1 µM) | >100
CC[C@H](C)[C@H](N)C(=O)N[C@@H](C)C(=O)NCC(=O)N[C@@H](CC(C)C)C(=O)N[C@@H](C)C(=O)N[C@@H](C)C(=O)N[C@@H](CC(N)=O)C(=O)N[C@@H](Cc1ccccc1)C(=O)N[C@@H](CC(C)C)C(=O)N1CCC[C@H]1C(=O)N[C@@H](CCC(N)=O)C(=O)N[C@H](C(=O)N[C@@H](CC(C)C)C(=O)N[C@H]1CSSC[C@@H](C(N)=O)NC(=O)[C@H](CCCCN)NC(=O)[C@H](CCCNC(=N)N)NC(=O)[C@H](C)NC(=O)[C@H]([C@@H](C)CC)NC(=O)[C@H](CCCCN)NC1=O)[C@@H](C)CC [B1CTcu5-L] (H-IAGLAANFLPQILCKIARKC-NH2; disulfide 14-20) |  |  | 25 (≈ 11.7 µM) | 100 (≈ 46.7 µM) |  | 25 (≈ 11.7 µM) | 100 (≈ 46.7 µM) | 50 (≈ 23.4 µM) | >100
CC[C@H](C)[C@@H]1NC(=O)[C@H](CCCCN)NC(=O)[C@@H](NC(=O)[C@H](CC(C)C)NC(=O)[C@@H](NC(=O)[C@H](CCC(N)=O)NC(=O)[C@@H]2CCCN2C(=O)[C@H](CC(C)C)NC(=O)[C@H](Cc2ccccc2)NC(=O)[C@H](CC(N)=O)NC(=O)[C@H](C)NC(=O)[C@H](C)NC(=O)[C@H](CC(C)C)NC(=O)CNC(=O)[C@H](C)NC(=O)[C@@H](NC(=O)[C@@H](N)Cc2c[nH]cn2)[C@@H](C)CC)[C@@H](C)CC)CSSC[C@@H](C(N)=O)NC(=O)[C@H](CCCCN)NC(=O)[C@H](CCCNC(=N)N)NC(=O)[C@H](C)NC1=O [B1CTcu5H] (H-HIAGLAANFLPQILCKIARKC-NH2; disulfide 15-21) | 90 ± 2.56 (≈ 39.5 µM) | >100 | >100 | 50 (≈ 22 µM) | >100 | 25 (≈ 11 µM) | 25 (≈ 11 µM) | 50 (≈ 22 µM) | >100
LIAGLAANFLPQILCKIARK-NH2 [B1CTcu5-C] |  |  | 50 | 50 |  | 50 | 25 | 25 | >100
CC[C@H](C)[C@H](NC(=O)[C@H](CCCCN)NC(=O)[C@H](CS)NC(=O)[C@H](CC(C)C)NC(=O)[C@@H](NC(=O)[C@H](CCC(N)=O)NC(=O)[C@@H]1CCCN1C(=O)[C@H](CC(C)C)NC(=O)[C@H](Cc1ccccc1)NC(=O)[C@H](CC(N)=O)NC(=O)[C@H](C)NC(=O)[C@H](C)NC(=O)[C@H](CC(C)C)NC(=O)CNC(=O)[C@H](C)NC(=O)[C@@H](NC(=O)[C@@H](N)CC(C)C)[C@@H](C)CC)[C@@H](C)CC)C(=O)N[C@@H](C)C(=O)N[C@@H](CCCNC(=N)N)C(=O)N[C@@H](CCCCN)C(=O)N[C@@H](CS)C(N)=O [Linear B1CTcu5] (H-LIAGLAANFLPQILCKIARKC-NH2) |  |  | >100 | 50 (≈ 22.2 µM) |  | 25 (≈ 11.1 µM) | 12.5 (≈ 5.54 µM) | 25 (≈ 11.1 µM) | >100
CC[C@@H](C)[C@@H](NC(=O)[C@H](N)CC(C)C)C(=O)N[C@H](C)C(=O)NCC(=O)N[C@H](CC(C)C)C(=O)N[C@H](C)C(=O)N[C@H](C)C(=O)N[C@H](CC(N)=O)C(=O)N[C@H](Cc1ccccc1)C(=O)N[C@H](CC(C)C)C(=O)N1CCC[C@@H]1C(=O)N[C@H](CCC(N)=O)C(=O)N[C@@H](C(=O)N[C@H](CC(C)C)C(=O)N[C@@H]1CSSC[C@H](C(N)=O)NC(=O)[C@@H](CCCCN)NC(=O)[C@@H](CCCNC(=N)N)NC(=O)[C@@H](C)NC(=O)[C@@H]([C@H](C)CC)NC(=O)[C@@H](CCCCN)NC1=O)[C@H](C)CC [DB1CTcu5] (H-[dL][dI][dA]G[dL][dA][dA][dN][dF][dL][dP][dQ][dI][dL][dC][dK][dI][dA][dR][dK][dC]-NH2; disulfide 15-21) | 71.4 ± 2.3 (≈ 31.7 µM) | >100 | 50 (≈ 22.2 µM) | 50 (≈ 22.2 µM) | >100 |  | 15 (≈ 6.66 µM) | 25 (≈ 11.1 µM) | >100
CC[C@H](C)[C@@H]1NC(=O)[C@H](CCCCN)NC(=O)[C@@H](NC(=O)[C@H](CC(C)C)NC(=O)[C@@H](NC(=O)[C@H](CCC(N)=O)NC(=O)[C@@H]2CCCN2C(=O)[C@H](CC(C)C)NC(=O)[C@H](Cc2ccccc2)NC(=O)[C@H](CC(N)=O)NC(=O)[C@H](C)NC(=O)[C@H](C)NC(=O)[C@H](CC(C)C)NC(=O)CNC(=O)[C@H](C)N)[C@@H](C)CC)CSSC[C@@H](C(N)=O)NC(=O)[C@H](CCCCN)NC(=O)[C@H](CCCNC(=N)N)NC(=O)[C@H](C)NC1=O [B1CTcu5-LI] (H-AGLAANFLPQILCKIARKC-NH2; disulfide 13-19) |  |  | 50 (≈ 24.7 µM) |  |  | 25 (≈ 12.3 µM) | 80 (≈ 39.5 µM) | 50 (≈ 24.7 µM) | >100
